The source of these data is ChEMBL document CHEMBL1201862, “PubChem BioAssay data set” (2004).

Where “and” joins values, the source holds several entries; their conditions need not be identical. Equal values may be shown once. Calls of active or inactive are those of the source.

Assay [1] concerns the target T1, Mannose-6-phosphate isomerase (Homo sapiens, UniProt P34949).
T1 sequence (P34949 whole entry): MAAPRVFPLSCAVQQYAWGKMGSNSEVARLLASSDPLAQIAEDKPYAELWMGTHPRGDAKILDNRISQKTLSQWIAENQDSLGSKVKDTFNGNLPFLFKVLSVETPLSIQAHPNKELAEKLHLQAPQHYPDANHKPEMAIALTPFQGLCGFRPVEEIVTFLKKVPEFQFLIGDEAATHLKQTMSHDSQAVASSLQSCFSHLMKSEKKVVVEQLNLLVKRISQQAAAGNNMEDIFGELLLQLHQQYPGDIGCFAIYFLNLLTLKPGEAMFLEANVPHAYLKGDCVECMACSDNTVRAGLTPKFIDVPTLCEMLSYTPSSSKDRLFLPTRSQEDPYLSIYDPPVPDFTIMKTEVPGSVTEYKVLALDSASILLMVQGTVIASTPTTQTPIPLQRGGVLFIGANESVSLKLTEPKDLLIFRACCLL
Description: MPI inhibition at elevated mannose 6-phosphate – biochemical, fluorescence intensity, high mannose 6-phosphate, primary screen (AID 1220).

The target of assay [2] is T2, Tyrosine-protein phosphatase non-receptor type 22 (Homo sapiens, UniProt Q9Y2R2).
T2 sequence (Q9Y2R2 whole entry): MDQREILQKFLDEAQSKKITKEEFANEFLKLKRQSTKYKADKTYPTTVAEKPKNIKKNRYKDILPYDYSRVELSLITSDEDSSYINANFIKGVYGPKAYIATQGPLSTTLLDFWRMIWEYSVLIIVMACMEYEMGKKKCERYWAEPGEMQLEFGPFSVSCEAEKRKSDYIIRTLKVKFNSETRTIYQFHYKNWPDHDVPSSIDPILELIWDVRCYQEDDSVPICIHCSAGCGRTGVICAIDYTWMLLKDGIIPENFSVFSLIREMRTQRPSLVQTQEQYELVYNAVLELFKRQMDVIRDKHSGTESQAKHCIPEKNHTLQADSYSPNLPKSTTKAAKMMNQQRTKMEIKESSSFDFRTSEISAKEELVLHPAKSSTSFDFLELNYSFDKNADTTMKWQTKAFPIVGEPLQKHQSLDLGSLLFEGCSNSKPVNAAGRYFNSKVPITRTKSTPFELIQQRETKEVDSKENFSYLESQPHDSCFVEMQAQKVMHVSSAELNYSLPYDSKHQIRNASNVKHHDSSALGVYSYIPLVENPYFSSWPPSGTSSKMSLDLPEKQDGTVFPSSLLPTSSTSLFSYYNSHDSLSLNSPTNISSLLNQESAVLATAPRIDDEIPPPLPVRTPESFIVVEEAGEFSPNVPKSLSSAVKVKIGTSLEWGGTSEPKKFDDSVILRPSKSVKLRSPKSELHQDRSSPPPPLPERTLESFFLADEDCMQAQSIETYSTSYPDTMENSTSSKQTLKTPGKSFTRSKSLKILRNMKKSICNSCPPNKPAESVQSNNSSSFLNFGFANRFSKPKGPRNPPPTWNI
Kind of assay: SAR LYP1 Fluorescent Assay using pCAP substrate for In Vitro dose response studies - Set 2. [Related pubchem assays (depositor defined):AID1779, AID1784, AID2135, AID449727]. It is filed as functional.

The target in assay [3] is T3, Tyrosine-protein phosphatase non-receptor type 12 (Homo sapiens, UniProt Q05209).
T3 sequence (Q05209 whole entry): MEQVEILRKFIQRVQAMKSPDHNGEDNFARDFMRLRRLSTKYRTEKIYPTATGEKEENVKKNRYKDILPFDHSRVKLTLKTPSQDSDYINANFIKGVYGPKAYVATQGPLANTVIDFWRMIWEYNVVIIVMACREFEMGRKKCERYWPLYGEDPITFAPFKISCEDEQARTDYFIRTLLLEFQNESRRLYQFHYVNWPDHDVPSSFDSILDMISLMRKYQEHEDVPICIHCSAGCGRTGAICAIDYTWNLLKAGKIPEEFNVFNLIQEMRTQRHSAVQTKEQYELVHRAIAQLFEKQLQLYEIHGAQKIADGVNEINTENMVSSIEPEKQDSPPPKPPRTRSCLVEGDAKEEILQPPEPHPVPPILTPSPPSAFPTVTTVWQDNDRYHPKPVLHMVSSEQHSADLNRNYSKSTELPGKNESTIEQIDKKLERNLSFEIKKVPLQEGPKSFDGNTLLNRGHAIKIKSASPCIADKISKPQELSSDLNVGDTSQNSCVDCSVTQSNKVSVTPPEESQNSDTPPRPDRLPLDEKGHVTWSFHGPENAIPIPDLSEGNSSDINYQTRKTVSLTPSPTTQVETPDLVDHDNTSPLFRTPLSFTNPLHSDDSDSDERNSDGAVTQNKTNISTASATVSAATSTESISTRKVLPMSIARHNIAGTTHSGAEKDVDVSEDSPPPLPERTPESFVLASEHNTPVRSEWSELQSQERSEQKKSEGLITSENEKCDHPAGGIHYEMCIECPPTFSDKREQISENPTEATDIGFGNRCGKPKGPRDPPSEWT
Kind of assay: SAR Selectivity Analysis of small molecule inhibitors of PEST using pCAP in a fluorescence assay. [Related pubchem assays (depositor defined):AID1779, AID1784, AID2135]. It is filed as functional.

Assay [4] addresses 14-3-3 protein gamma (Homo sapiens, UniProt P61981). Description: modulators of 14-3-3 gamma client binding – dose response (AID 711). It is filed as functional.
For assay [5], the target named is Genome polyprotein (Hepatitis C virus, UniProt Q2Q167). Kind of assay: disruption of hepatitis C core self-association – biochemical, TR-FRET, dose response (AID 2159).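 Note: blocks dimerization of HCV core protein measured by TR-FRET between tagged core106 pairs.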 Set-up: species or system Hepacivirus hominis. (TR-FRET usually uses a lanthanide donor and a delayed reading to cut background.)
Sequence of Genome polyprotein (Q2Q167 whole entry): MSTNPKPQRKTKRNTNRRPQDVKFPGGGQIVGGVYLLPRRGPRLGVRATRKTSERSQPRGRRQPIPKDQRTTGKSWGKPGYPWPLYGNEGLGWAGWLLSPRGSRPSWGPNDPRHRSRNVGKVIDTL
Assay [6] has as its system BJ. Kind of assay: BJ-TERT-LT-ST fibroblast viability loss – cell-based, RAS-independent, luminescence, dose response (AID 1935).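 Note: BJ fibroblasts immortalized with TERT plus LT and ST oncogenes.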 The class given is functional. Conditions: Homo sapiens.
Assay [7] concerns the target T4, Protein Tat (Human immunodeficiency virus type 1 group M subtype B (isolate HXB2)(HIV-1), UniProt P04608).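 Note: tat binding to TAR RNA read out by fluorescence polarization.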
T4 sequence (P04608 whole entry): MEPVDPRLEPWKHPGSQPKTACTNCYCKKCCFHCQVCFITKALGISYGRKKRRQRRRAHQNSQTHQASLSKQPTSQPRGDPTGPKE
The class given is functional.

Sequence of 14-3-3 protein gamma (P61981 whole entry): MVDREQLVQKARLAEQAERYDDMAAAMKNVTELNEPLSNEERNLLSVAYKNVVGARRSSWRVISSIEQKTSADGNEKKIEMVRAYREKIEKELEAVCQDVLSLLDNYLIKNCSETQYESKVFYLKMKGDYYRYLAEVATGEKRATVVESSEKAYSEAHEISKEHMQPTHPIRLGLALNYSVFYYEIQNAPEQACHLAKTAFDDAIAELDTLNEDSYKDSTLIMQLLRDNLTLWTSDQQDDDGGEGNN

Regarding `Cc1oc2c(c1C(=O)c1ccccc1)C(=O)C(=O)c1ccccc1-2`, the IC50 in assay [1] is > 50 µM (not active).
Regarding `O=C(O)COc1ccc(/C=N/NC(=O)c2ccc(-c3csc(Nc4ccc(Cl)cc4)n3)cc2)cc1`, the IC50 is 0.249 µM (active) in assay [2]; 334 nM (active) and 325 nM (active) in assay [3].
For `O=C1CCCC2=C1C1(O)C(=O)c3ccccc3C1(O)O2` (configuration not stated), the IC50 in assay [4] was > 50 µM (not active).
Regarding `Nc1ccc2nc3c(O)nc(S)nc3nc2c1`, the IC50 in assay [5] is listed as > 49.8 µM (not active).
Turning to `CCN1/C(=C/c2ccc3cc(C)ccc3[n+]2CC)Sc2cc(C)c(C)cc21`, in assay [6], the EC50 was 13.7 µM (inconclusive).
In the case of `COc1cc(NCCCNC(C)C)c2nccc(C)c2c1`, the IC50 in assay [7] is > 100 µM (active).

Broadly, the IC50 is the concentration that gives 50% inhibition. In general, EC50 refers to the concentration giving half of the maximal effect.
